Drawing on ChEMBL document CHEMBL4130540, “Multifunctional iminochromene-2H-carboxamide derivatives containing different aminomethylene triazole with BACE1 inhibitory, neuroprotective and metal chelating properties targeting Alzheimer's disease” (Eur J Med Chem, 2017), this text covers IC50, inhibition and Activity for eleven molecules.

Data set [1] concerns the target T1, Beta-secretase 1 (Homo sapiens, UniProt P56817). The data set can be described thus: Inhibition of recombinant human BACE1 (1 to 460 residues) expressed in baculovirus infected insect cells using Rh-EVNLDAEFK-Quencher as substrate incubated under dark condition for 90 mins by FRET assay.
Data set [2] addresses T1, Beta-secretase 1. The data set can be described thus: Inhibition of recombinant human BACE1 (1 to 460 residues) expressed in baculovirus infected insect cells at 50 uM using Rh-EVNLDAEFK-Quencher as substrate incubated under dark condition for 90 mins by FRET assay relative to control.
For data set [3], the target named is T1, Beta-secretase 1. The data set is described as follows: Inhibition of recombinant human BACE1 (1 to 460 residues) expressed in baculovirus infected insect cells at 10 uM using Rh-EVNLDAEFK-Quencher as substrate incubated under dark condition for 90 mins by FRET assay relative to control.
The nature of data set [4]: Metal chelating activity assessed as compound-Fe2+ complex formation at 400 uM preincubated with ferrous ion FeCl2 followed by ferrozine addition measured after 10 mins by spectroscopic method.
Data set [5] relates to PC-12. The data set is described as follows: Neuroprotection against amyloid beta (25 to 35)-induced cell death in rat PC12 cells preincubated for 3 hrs followed by amyloid beta addition measured after 24 hrs by MTT assay. Format: functional, cell-based. On the technique in general: Formazan colour is commonly taken as a measure of viable cells.
Data set [6] concerns PC-12. The data set is described as follows: Neuroprotection against amyloid beta (25 to 35)-induced cell death in rat PC12 cells at 25 uM preincubated for 3 hrs followed by amyloid beta addition measured after 24 hrs by MTT assay relative to control. Format: functional.
The subject of data set [7] is PC-12. The data set is described as follows: Neuroprotection against amyloid beta (25 to 35)-induced cell death in rat PC12 cells at 10 uM preincubated for 3 hrs followed by amyloid beta addition measured after 24 hrs by MTT assay relative to control. The format is functional.
For data set [8], the system named is PC-12. The data set can be described thus: Cytotoxicity against rat PC12 cells up to 100 uM after 24 hrs by MTT assay. Format: cell-based. The note with it: pc-12, 24 h.
Data set [9] is described as follows: Metal chelating activity assessed as compound-Fe2+ complex formation at 20 uM after 30 mins by UV-Visible spectroscopic method.
The nature of data set [10]: Metal chelating activity assessed as mole fraction of compound required to show 3:2 stoichiometry for Fe2+-compound complex at 20 uM after 30 min by UV-Visible spectroscopic method.
Data set [11] relates to PC-12. The data set is described as follows: Neuroprotection against amyloid beta (25 to 35)-induced cell death in rat PC12 cells at 15 uM preincubated for 3 hrs followed by amyloid beta addition measured after 24 hrs by MTT assay relative to control. The format is functional.

Calls of active or inactive are those of the source. The rule behind the calls is not given here.

T1 sequence (P56817 whole entry, the tested form may be a part): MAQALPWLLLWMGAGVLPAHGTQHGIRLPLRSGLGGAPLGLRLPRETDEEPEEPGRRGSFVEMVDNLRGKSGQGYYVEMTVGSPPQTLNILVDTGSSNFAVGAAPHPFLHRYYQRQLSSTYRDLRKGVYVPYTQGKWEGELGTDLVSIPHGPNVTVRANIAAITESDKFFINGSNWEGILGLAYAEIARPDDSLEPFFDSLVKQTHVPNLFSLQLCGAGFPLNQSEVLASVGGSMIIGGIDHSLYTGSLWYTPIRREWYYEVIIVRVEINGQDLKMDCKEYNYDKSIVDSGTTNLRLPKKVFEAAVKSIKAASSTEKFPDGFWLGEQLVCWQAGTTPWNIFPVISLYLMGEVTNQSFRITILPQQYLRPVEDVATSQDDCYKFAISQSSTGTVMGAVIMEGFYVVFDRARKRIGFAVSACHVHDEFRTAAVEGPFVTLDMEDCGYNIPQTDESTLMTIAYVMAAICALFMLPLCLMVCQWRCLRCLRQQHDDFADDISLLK

The IC50 is the midpoint of a concentration-inhibition curve. What is called inhibition is the drop in the measured response relative to a control, in per cent. For `N=c1oc2ccccc2cc1C(=O)Nc1cc(Br)ccc1NCc1cn(CCCN2C(=O)c3ccccc3C2=O)nn1`, the IC50 amounted to 2.2 µM at Beta-secretase 1 [1] and 7.9 µM with PC-12 [5]. The figures for the inhibition on Beta-secretase 1 [2] and on Beta-secretase 1 [3] were 84.2% and 83.5%, respectively. The Activity in [4] is 10.2%; with PC-12 [6] it was 100%; with PC-12 [7] it was 78.8%; in the data set with PC-12 [8], “Non-Toxic”.
For `COc1ccc(Cn2cc(CNc3ccc(Br)cc3NC(=O)c3cc4ccccc4oc3=N)nn2)cc1`, the inhibition at Beta-secretase 1 [2] is 34.5%; at Beta-secretase 1 [3], 10%. The Activity in the data set with PC-12 [6] was 22%; with PC-12 [7], 28.4%; in the data set on PC-12 [8], “Non-Toxic”.
In the same order, the values of `N=c1oc2ccccc2cc1C(=O)Nc1cc(Br)ccc1NCc1cn(Cc2ccc(F)cc2)nn1` are 45.9%, 21.3%, 22.2%, 13.1% and “Non-Toxic”.
In the case of `N=c1oc2ccccc2cc1C(=O)Nc1cc(Br)ccc1NCc1cn(Cc2ccc(Cl)c(Cl)c2)nn1`, the IC50 on Beta-secretase 1 [1] is 7.5 µM; in the data set on PC-12 [5] it was 90.5 µM. In addition, the figures for the inhibition on Beta-secretase 1 [2] and on Beta-secretase 1 [3] were 60.8% and 52%, respectively. In addition, the Activity is reported as 49.8% in the data set on PC-12 [6], 21.8% in the data set on PC-12 [7] and “Non-Toxic” in the data set with PC-12 [8].
In the case of `N=c1oc2ccccc2cc1C(=O)Nc1cc(Br)ccc1NCc1cn(CCCCN2C(=O)c3ccccc3C2=O)nn1`, the IC50 on Beta-secretase 1 [1] and in the data set with PC-12 [5] was 6.8 µM throughout. For the same molecule, the inhibition on Beta-secretase 1 [2] worked out at 77.6%; at Beta-secretase 1 [3] it was 55.7%. For the same molecule, the Activity was 12.8% in data set [4], 67.8% in the data set with PC-12 [7] and “Non-Toxic” with PC-12 [8].
With `N=c1oc2ccccc2cc1C(=O)Nc1cc(Br)ccc1NCc1cn(Cc2ccccc2)nn1`, the inhibition at Beta-secretase 1 [2] is 25.2%; on Beta-secretase 1 [3], 12.1%. In addition, in the data set with PC-12 [8], the Activity entry is “Non-Toxic”.
Regarding `N=c1oc2ccccc2cc1C(=O)Nc1cc(Br)ccc1NCc1cn(Cc2ccc(Br)cc2)nn1`, the IC50 on Beta-secretase 1 [1] came to 6.4 µM; in the data set on PC-12 [5], 37.8 µM. Besides, the inhibition on Beta-secretase 1 [2] was found to be 100%; at Beta-secretase 1 [3], 72.3%. The Activity in data set [4] was 45.2%; with PC-12 [6], 37.5%; in the data set with PC-12 [7], 16.4%; in the data set on PC-12 [8], “Non-Toxic”; in data set [10], 1.5 molar ratio. For the same molecule, in data set [9], the result was Active.
For the molecule `O=C(O)/C=C/c1ccc(O)c(O)c1` [CAFFEIC ACID], inhibition in the data set on PC-12 [5] was half-maximal at 75.8 µM (IC50).
Take `Cc1ccc(Cn2cc(CNc3ccc(Br)cc3NC(=O)c3cc4ccccc4oc3=N)nn2)cc1`: the inhibition turned out to be 52.4% at Beta-secretase 1 [2] and 38.3% on Beta-secretase 1 [3]. Besides, the Activity in the data set with PC-12 [6] is reported as 19.2%; in the data set with PC-12 [11], 83.8%; in the data set with PC-12 [8] it was “Non-Toxic”.
As to `O=C(O)CN(CCN(CC(=O)O)CC(=O)O)CC(=O)O`, the Activity in data set [4] amounted to 96.4%.
With `N=c1oc2ccccc2cc1C(=O)Nc1cc(Br)ccc1NCc1cn(Cc2cccc(Cl)c2Cl)nn1`, the IC50 was determined as 15.6 µM on Beta-secretase 1 [1] and 18.9 µM in the data set with PC-12 [5]. For the same molecule, the inhibition stood at 62% at Beta-secretase 1 [2] and 47.8% on Beta-secretase 1 [3]. Further, the Activity in the data set with PC-12 [6] is listed as 57.2%; in the data set on PC-12 [7], 23.6%; with PC-12 [8] it was “Non-Toxic”.
